The nature of data set [1]: Metabolic stability in human liver microsomes assessed as parent compound remaining at 0.1 uM after 60 mins in presence of NADPH by LC-MS/MS analysis. The conditions noted are these: read-out: Stability. In kind it is ADME, Microsome. (In general: Liver microsomes are vesicles of endoplasmic reticulum, rich in cytochrome P450 enzymes.)
Data set [2] can be described thus: Metabolic stability in rat liver microsomes assessed as parent compound remaining at 0.1 uM after 60 mins in presence of NADPH by LC-MS/MS analysis. In kind it is ADME, Microsome. To be noted: read-out: Stability.
Data set [3] can be described thus: Metabolic stability in mouse liver microsomes assessed as parent compound remaining at 0.1 uM after 60 mins in presence of NADPH by LC-MS/MS analysis. The class given is ADME, Microsome. The conditions noted are these: read-out: Stability.
Data set [4] can be described thus: Half life in Balb/c mouse at 2 mg/kg, iv by LC-MS/MS analysis. The class given is ADME, organism-based. The conditions noted are these: in vivo.
A short description of data set [5]: Blood clearance in Balb/c mouse at 2 mg/kg, iv by LC-MS/MS analysis. The class given is ADME, organism-based. To be noted: whole blood.
Data set [6] in a line: Volume of distribution in Balb/c mouse at 2 mg/kg, iv by LC-MS/MS analysis. In kind it is ADME, organism-based. To be noted: in vivo.
Data set [7] in a line: Cmax in Balb/c mouse at 20 mg/kg, po by LC-MS/MS analysis. The class given is ADME, organism-based. On the set-up: dose 20 mg/kg, route oral. To be noted: in vivo.
The nature of data set [8]: Tmax in Balb/c mouse at 20 mg/kg, po by LC-MS/MS analysis. The class given is ADME, organism-based. The conditions noted are these: in vivo.
Data set [9] is described as follows: Oral bioavailability in Balb/c mouse at 20 mg/kg by LC-MS/MS analysis. The class given is ADME, organism-based. The conditions noted are these: in vivo.
Data set [10] is described as follows: AUC (0 to infinity) in Balb/c mouse at 20 mg/kg, po by LC-MS/MS analysis. The class given is ADME, organism-based. On the set-up: dose 20 mg/kg, route oral, time infinity. To be noted: in vivo.
The nature of data set [11]: AUC (0 to infinity) in Balb/c mouse at 2 mg/kg, iv by LC-MS/MS analysis. The conditions noted are these: in vivo. The class given is ADME, organism-based. Also noted: dose 2 mg/kg, route intravenous, time infinity.

SMILES strings stand for the structures.

For orientation: half-life means the time needed for the level to fall by half in the phase considered. As usually defined, the clearance is the rate of elimination divided by the concentration. A lower clearance goes with a low capacity for elimination. As usually defined, the Vd is the apparent volume that relates the amount in the body to the concentration in plasma or blood. A lower Vd goes with little distribution into tissue. What is called Cmax is the highest concentration seen after dosing. As usually defined, the Tmax is the time at which the peak concentration occurs. The term bioavailability denotes the share of a dose that reaches the circulation, judged against a reference dose that is usually intravenous. Lower therefore signals poor availability. The term AUC(0-inf) denotes total exposure, with the tail of the curve extrapolated.

On to `Fc1ccc(-c2nc3cnc(Nc4ccc(N5CCN(CC6CC6)CC5)cn4)cc3[nH]2)cc1F`, for which the results for the remaining at 1 h, 0.1 µM in data set [1], in [2] and in data set [3] were 7%, 9% and 14%, respectively.
Turning to `FC(F)(F)c1ccc(-c2nc3cnc(Nc4ccc(N5CCN(CC6CC6)CC5)cn4)cc3[nH]2)cn1`, the values for the remaining at 1 h, 0.1 µM in data set [1], in [2] and in [3] were 93%, 55% and 68%, respectively.
As to `Fc1ccc(Nc2cc3[nH]c(Nc4ccc(N5CCNCC5)cn4)nc3cn2)cc1C(F)(F)F`, the results for the remaining at 1 h, 0.1 µM in [1], in [2] and in data set [3] were 92%, 59% and 55%, respectively.
The like results for `Fc1ccc(-c2nc3cnc(Nc4ccc(N5CCNCC5)cn4)cc3[nH]2)cc1F` were, in that order, 92%, 73% and 75%.
On to `FC1(F)CC(c2nc3cnc(Nc4ccc(N5CCN(CC6CC6)CC5)cn4)cc3[nH]2)C1`, for which the values for the remaining at 1 h, 0.1 µM in data set [1], in data set [2] and in data set [3] were 86%, 52% and 54%, respectively.
The matching figures for `O=C(c1ccnc(Nc2cc3[nH]c(-c4ccc(F)c(C(F)(F)F)c4)nc3cn2)c1)N1CCN(C2CC2)CC1`: 77%, 53% and 93%.
As to `CC(C)(C)N1CCN(C(=O)c2ccnc(Nc3cc4[nH]c(-c5cccc(C(F)(F)F)c5)nc4cn3)c2)CC1`, the results for the remaining at 1 h, 0.1 µM in data set [1], in [2] and in data set [3] were 65%, 48% and 26%, respectively. In data set [4], the half-life is 19 h. For the same compound, in data set [5], the clearance was 68 mL/min/kg. The same compound registered a Vd in [6] of 117 L/kg. Also, the Cmax in data set [7] was determined as 40 nM. Besides, the time to peak (Tmax) in data set [8] was 0.5 h. Also, the bioavailability in data set [9] worked out at 2%. Further, the AUC(0-inf) in data set [10] was 0.2 µM·h; in [11], 0.933 µM·h.
Turning to `CC(C)CN1CCN(c2ccc(Nc3cc4[nH]c(C5CCC(F)(F)CC5)nc4cn3)nc2)CC1`, the values for the remaining at 1 h, 0.1 µM in [1], in data set [2] and in data set [3] were 59%, 64% and 61%, respectively.
Turning to `Fc1ccc(-c2nc3cnc(Nc4ccc(C5CCNCC5)cn4)cc3[nH]2)cc1F`, the remaining at 1 h, 0.1 µM in [1] worked out at 98%; in data set [2] it was 97%; in [3] it was 87%.
The like results for `Fc1ccc(Nc2cc3[nH]c(Nc4cc(N5CCNCC5)ccn4)nc3cn2)cc1C(F)(F)F` were, in that order, 98%, 73% and 78%.
As for `Fc1ccc(-c2nc3cnc(Nc4ccc(N5CCN(CC6CC6)CC5)cn4)cc3[nH]2)cc1C(F)(F)F`, the remaining at 1 h, 0.1 µM in data set [1] came to 52%; in data set [2], 36%; in data set [3], 41%.
